According to patent US6645501B2, “Anti-pathogen system and methods of use thereof” (Washington University, priority 1997, dated 2003):
Entries after “also recorded” stand apart in the source; their conditions may differ.

B1: TAT-CPP32 mutant (protein)
chain: GRKKRRQRRRGYPYDVPDYACTERQANFLGKIWPGISLDNSYKMDYPEMGLCIIINNKNFHKSTGMTSRSGTDVDAANLRETFRNLKYEVRNKNDLTREEIVELMRDVSKEDHSKRSSFVCVLLSHGEEGIIFGTNGPVDLKKITNFFRGDRCRSLTGKPKLFIIQAMRGTELDCGIETSQVSQNYPIVQNLQGVDDDMACHKIPVEADFLYAYSTAPGYYSWRNSKDGSWFIQSLCAMLKQYADKLEFMHILTRVNRKVATEFESFSFDATFHAKKQIPCIVSMLTKELYFYH
modifications: left off: small tags and cut ends
B2: TAT-A-p16: HIV A (p17-p24) cleavage site inserted between the TAT and p16 domains (protein)
chain: GRKKRRQRRRGSQVSQNYPIVQNLQMEPAAGSSMEPSADWLATAAARGRVEEVRALLEAGALPNAPNSYGRRPIQVMMMGSARVAELLLLHGAEPNCADPATLTRPVHDAAREGFLDTLVVLHRAGARLDVRDAWGRLPVDLAEELGHRDVARYLRAAAGGTRGSNHARIDAAEGPSDIPD
modifications: left off: small tags and cut ends
notes: HIV A (p17-p24) cleavage site inserted between the TAT and p16 domains
B3: TAT-Dp16: TAT-p16 fusion protein containing the HIV D (p7-p1) cleavage site (protein)
chain: GRKKRRQRRRGCTERQANFLGKIWPMEPAAGSSMEPSADWLATAAARGRVEEVRALLEAGALPNAPNSYGRRPIQVMMMGSARVAELLLLHGAEPNCADPATLTRPVHDAAREGFLDTLVVLHRAGARLDVRDAWGRLPVDLAEELGHRDVARYLRAAAGGTRGSNHARIDAAEGPSDIPD
modifications: left off: small tags and cut ends
notes: TAT-p16 fusion protein containing the HIV D (p7-p1) cleavage site

Experiments:
Assay type in all cases: cell-based
Jurkat T cells [1] = test: Co-transduction of uninfected Jurkat T cells with TAT-CPP32 and TAT-Protease, survival by trypan-blue exclusionary dye microscopy
Protocol: To test for activation of the TAT-CPP32 by TAT-Protease, 2×10^6 Jurkat T cells were placed in 2 ml of culture (RPMI media). To these cells, various combinations of control and experimental transducible proteins were added in 50-100 nM ranges, as follows:
The cells were assayed for survival at 18 hr post-addition by trypan-blue exclusionary dye microscopy. […] Thus, activation of TAT-CPP32 requires the presence of HIV protease.

[2] = system: Jurkat T-cells infected by HIV (strain NLHX); test: Killing of HIV-infected Jurkat T-cells, trypan blue exclusion and microscopy
Protocol: About 5×10^6 Jurkat T-cells were infected by HIV (strain NLHX; about 1×10^5 to 1×10^6 infectious virus per ml). The cells were propagated in RPMI media. Approximately 4 to 7 days after the infection, the media was removed from the plates and about 35 to 45 nanomoler of the TAT-CPP32 fusion protein was added to the cells. The cells were incubated with the fusion proteins for about 30 minutes to allow transduction into the cells. […] Subsequently, media was added back to the plates and after about 18 hours post-transduction, the cells were examined for cell killing using conventional trypan blue exclusion and microscopy.
Briefly, cells were infected and transduced as described in Example 6 above. Following the transduction, about 1 μg/ml Ritonavir was added to the cell media and allowed to incubate with the cells for about 18 hours. The cells were then assayed for cell killing by conventional trypan blue exclusion and microscopy. […]

[3] = system: Jurkat T cells infected with the NLHX strain of HIV-I; test: Cytotoxicity of TAT-Casp3 on HIV infected Jurkat cultures, exclusionary dye viability analysis; settings: 1 μg/ml Ritonavir prior to 100 nM TAT-Casp3WT
Description: To make this determination, Jurkat T cells were infected for 7-14 days with the NLHX strain of HIV-I and examined microscopically for HIV cytopathic effects. See Westervelt, P., et al., Identification of a determinant within the HIV-1 surface envelope glycoprotein critical for productive infection of cultured primary monocytes. Proc. Natl. Acad. Sci USA 88: 3097 (1991). At the start of each transduction experiment approximately 50% of the culture was HIV positive. HIV infected cultures were transduced for 16 hr with 100 nM TAT-Casp3WT or TATCasp3MUT protein and then assayed for cell viability (FIG. 13). […] In addition, we detected both the appearance of cells containing <2N DNA content and cells with condensed nuclei in TAT-Casp3 treated cells.
To determine if TAT-Casp3WT induced apoptosis was dependent on active HIV Protease in the infected cultures, HIV infected cultures were pretreated with 1 μg/ml Ritonavir prior to transduction with 100 nM TAT-Casp3WT protein (FIG. 5). […] In addition, the observed increased survival of Ritonavir treated cells is consistent with increased longevity of protease inhibitor treated HIV infected cells. See Coffin, J. M., et al. (supra).
The specific killing of HIV infected cells shown in FIG. 5 is explained in more detail as follows. Jurkat T cells were infected for 7-14 days with HIV strain NLHX, then transduced with TAT-Casp3WT (WT) or TAT-Casp3MUT (MUT) proteins for 16 hr and assayed for cell viability. […] Ctrl, control addition of PBS to cultures; abscissa, % viability of HIV positive cells in the population at start of transduction; error bars represent SD.
(§1) 1. […] See Lissy, N. A., et al. (supra). […] See Ezhevsky, S. A., et al. (supra). […] See Xiang, J., et al., (supra). […] See Xiang, J., et al., (supra). […] See Ezhevsky, S. A., et al. (supra).

Jurkat T-cells = test: Transduction of FITC-labeled synthetic peptides into Jurkat T-cells (rate and intracellular concentration versus TAT); settings: for Intracellular Concentration / Rate Compared to TAT: FITC-labeled peptide, Jurkat T-cells; for Intracellular Concentration: at equilibrium, relative to the TAT peptide; for Rate Compared to TAT: sign relative to TAT
Protocol: The following artificial (i.e. synthetic) peptides were made by conventional peptide synthesis as described above. A goal of this experiment was to produce transduction domains that could transduce more effectively as judged by the intracellular concentration in transduced cells. The transduction domains were tested against a suitable control, which typically was the “natural” TAT or an Antp transduction domain. Briefly, a FITC group was synthetically attached to N-terminus of 100% of each peptide so that transduction rate and intracellular concentration of each peptide could be quantified at equilibrium. The TAT transduction domain is recognized to be alpha-helical. In each synthetic peptide sequence, an alpha-helix was modeled with varying amounts of Arg on one face. That is, a series of synthetic peptides was designed that contained varying amounts of Arg residues on one surface and substituted with Ala residues. Both Ala and Arg residues have the highest probability/energetics for maintaining an alpha-helical structure. See FIG. 7, which depicts each peptide as a helical wheel projection. The peptides are shown below in Table 2.
The synthetic peptides were transduced into Jurkat T-cells along lines described above in Example 4.

Jurkat T cells [4] = test: FACS and confocal analysis of FITC-labeled TAT fusion proteins added to Jurkat T cells; settings: FITC-labeled protein added to media of Jurkat T cells
Protocol: To test the ability of TAT-Casp3 proteins to transduce into cells, TAT-Casp3 proteins were conjugated to fluorescein (FITC), then added directly to the media of Jurkat T cells and analyzed by Flow Cytometry (FACS) (FIGS. 9B-C). Both TAT-Casp3WT and TAT-Casp3MUT proteins rancidly transduced into ˜100% of cells, achieving maximum intracellular concentration in less than 20 min. In addition, based on the narrow peak width before and after addition of FITC labeled proteins, individual cells within the population contain near identical intracellular concentrations of TAT-Casp3-FITC protein. […] Thus, TAT-Casp3 proteins readily transduce into 100% of all cells inca rapid and concentration-dependent fashion.
The generation and transduction of TAT fusion proteins shown in FIGS. 9A-E are explained in more detail as follows: FIG. 9A. Diagram depicting HIV cleavage site sequences and domains of TAT fusion proteins. FIGS. 9B-D. FACS kinetic analysis of fluorescein (FITC) labeled TAT-Casp3WT, TAT-Casp3MUT and TAT-HIV Pr proteins added to cells at 0, 20 and 30 min. FIG. 9E. FACS dose analysis of 3, 6, and 12 nM TAT-Casp3WT-FITC protein added to cells at I hr post-addition. Note rapid, concentration-dependent transduction of all FITC labeled protein into ˜100% of cells and near identical intracellular concentration within the population as measured by FACS peak width of control vs. transduced cells.
as §1

HIV Protease = target: T1, HIV Protease (Human immunodeficiency virus type 1 group M subtype B, UniProt P04585); test: In vivo substrate cleavage by co-transduced TAT-HIV Pr in Jurkat T cells, immunoblot
T1 construct: PCR cloning the HIV Protease gene from HXB2R HIV strain; 6xHis (from the pTAT vector) (N); made in house; the purified protein was added to Jurkat T cells
Protocol: To assay for in vivo cleavage, p 16(−) Jurkat T cells were transduced with 100 nM TAT-Ap16 or control TAT-p16 protein (no HIV cleavage site) alone or in combination with 50 nM TATHIV Pr fusion protein for 5 hr and analyzed by anti-p16 immunoblot for in vivo cleavage at the HIV A proteolytic cleavage site (FIG. 10A). […] Size analysis of the cleaved TAT-A-p 16 protein was consistent with retention of the residual HIV half site present on the N′ terminus of p 16 (FIG. 10A, see lane 4 vs. 5).
Further, the TAT-Casp3MUT protein was transduced in combination with TAT-HIV Pr protein into cells (FIG. 10B).
The in vivo processing in co-transduced cells shown in FIGS. 10A and 10B is explained in more detail as follows. FIG. 10A. Cultures of p16(−) Jurkat T cells were transduced with TAT-p 16 or TAT-A-p 16 substrate proteins in combination with TATHIV Pr proteins for 5 hr and subjected to anti-p 16 immunoblot analysis. […] WCE, HepG2 whole cell lysate containing wild type endogenous p16; A-p16, cleaved TAT-A-16 product retaining the HIV half site on p16. FIG. 10B. Cultures of Jurkat T cells were transduced with TATCasp3MUT protein (TAT-“D” site-p 17 domain-“A” site-p12 domain) alone or in combination with TAT-HIV Pr (Pr) protein as indicated and immunoblotted with anti-Caspase-3 antibodies specific for the p17 domain. TAT-D-p17-A, cleaved product of TAT-Casp3 containing the N′ terminal HIV A half site.
as §1

[5] = 50-100 nM, uninfected Jurkat T cells, 18 hr post-addition

| Molecule | Intracellular Concentration (Jurkat T-cells) [X] | Rate Compared to TAT (Jurkat T-cells) | also measured |
| --- | --- | --- | --- |
| CC(C)c1nc(CN(C)C(=O)N[C@H](C(=O)N[C@@H](Cc2ccccc2)C[C@H](O)[C@H](Cc2ccccc2)NC(=O)OCc2cncs2)C(C)C)cs1 [Ritonavir, reference compound] | – | – | effect of the protease inhibitor on TAT-CPP32 wild type killing (Jurkat T cells [1]; added to TAT-CPP32 wild type plus TAT-Protease experiment): loss of specific TAT-CPP32 wild type killing; effect on the ability of TAT-CPP32 to kill infected cells ([2]; about 1 μg/ml Ritonavir added after transduction, about 18 hours): essentially blocked; effect of pretreatment on TAT-Casp3WT killing of HIV infected cells [3]: protection from TAT-Casp3WT induced apoptosis; also recorded: protects infected cells |
| 4 (YARAAARQARA; human) [compound 4] | 5 | = | – |
| 7 (YARRRRRRRRR; human) [compound 7] | 5 | = | – |
| 10 (CTERQANFLGKIWP; human) [compound 10] | 1 | < | – |
| 2 (YGRKKRRQRRR; human) [compound 2] | 1 | = | – |
| RQIKIWFQNRRMKWKK [SEQ ID NO. 10, reference compound] | – | – | transduction rate relative to the TAT peptide (in words) (Jurkat T-cells): slower transduction rate |
| 5 (YARAARRAARR; human) [compound 5] | 10 | = | – |
| 6 (YARAARRAARA; human) [compound 6] | 5 | = | – |
| 8 (YAAARRRRRRR; human) [compound 8] | 5 | = | – |
| 3 (YARKARRQARR; human) [compound 3] | 10 | = | – |
| 1 (AKIWFQNRRMKWKKEN; human) [compound 1] | 1 | = | – |
| B1 | – | – | cytotoxicity when added alone (Jurkat T cells [1]; [5]): minimal cytotoxicity; loss of viable cells when added plus TAT-Protease (Jurkat T cells [1]; [5]): not; killing of HIV-infected cells ([2]; about 35 to 45 nanomoler, about 18 hours post-transduction): not capable of killing |
| B2 | – | – | cells transduced (Jurkat T cells [4]): 100%; cleavage at the HIV cleavage site when co-transduced with TAT-HIV Pr (HIV Protease; 100 nM substrate, 50 nM TAT-HIV Pr, Jurkat T cells, immunoblot): specific substrate cleavage |
| B3 | – | – | preference between HIV A site and D site (HIV Protease; co-transduction with TAT-HIV Pr): HIV A site was preferentially cleaved over |
